Literature values as cited in US6753298B2, “Agents for combating Neospora spec” (Bayer AG, priority 1997, dated 2004).

Tested on: Neospora
Conditions: experimentally infected mice; administered by drinking water

## Nc1ccc(S(=O)(=O)Nc2ncccn2)cc1 [sulphadiazine]
  in-vivo efficacy: effective only when the treatment was prophylactic
